Source: patent US4880938A, “Amino acid analogs” (priority 1986, dated 1989)
Where a SMILES comes first, the peptide text is derived from it. [ ]: non-standard residue; d: D form. The star is where a group is joined. sY = N[C@@H](Cc1ccc(OS(=O)(=O)O)cc1)C(=O)O; Cbz = O=C(OCc1ccccc1)*; Boc = CC(C)(C)OC(=O)*

What was measured:
[1] = molecular target: T1, CCK receptor (brain, cerebral cortex) (Cavia porcellus, UniProt H0VZC5); test: 125I-CCK-33 receptor binding (brain) method; parameters: species or system guinea pig (male Hartley); conditions: 125I-CCK-33, guinea pig cerebral cortex, 25° C., 2 hours
T1 construct: The cerebral cortex was dissected and used as a receptor source; from tissue; host or cells: cerebral cortex of male Hartley guinea pigs, membrane homogenate
T1 sequence (H0VZC5 1-426): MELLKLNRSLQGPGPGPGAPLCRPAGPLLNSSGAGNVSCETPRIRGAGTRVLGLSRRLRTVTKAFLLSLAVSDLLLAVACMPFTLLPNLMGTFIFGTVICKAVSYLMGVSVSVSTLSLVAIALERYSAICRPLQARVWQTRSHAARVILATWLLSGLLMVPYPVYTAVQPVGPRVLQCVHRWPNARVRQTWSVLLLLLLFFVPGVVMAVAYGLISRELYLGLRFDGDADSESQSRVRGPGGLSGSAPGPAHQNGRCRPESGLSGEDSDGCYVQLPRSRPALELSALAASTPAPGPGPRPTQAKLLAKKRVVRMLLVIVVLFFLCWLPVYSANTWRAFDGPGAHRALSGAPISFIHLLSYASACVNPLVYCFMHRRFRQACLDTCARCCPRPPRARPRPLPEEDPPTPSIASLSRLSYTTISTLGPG
Text: (§1) Screening of the novel compounds according to the present invention to determine biological activity and obtain an IC50 value for them, in order to identify significant CCK-antagonism, may be accomplished using an ^125 I-CCK receptor binding assay and in vitro isolated tissue preparations. To identify significant gastrin antagonism, ^125 I-gastrin and ^3 H-pentagastrin binding assays are used. These tests involve the following:
CCK receptor binding (brain) method
CCK-33 was radiolabeled and the binding was performed according to the description for the pancreas method, with modifications according to Saito et al., J. Neurochem., 37, 483-490, 1981.
Male Hartley guinea pigs (300-500 g) were sacrificed by decapitation, and the brains were removed and placed in ice-cold 50 mM Tris HCl plus 7.58 g/l Trizma-7.4 [pH 7.4 at 25° C.]. The cerebral cortex was dissected and used as a receptor source and each gram of fresh guinea pig brain tissue was homogenized in 10 ml of Tris/Trizma buffer with a Brinkmann polytron PT-10. The homogenates were centrifuged at 42,000 g for 15 minutes, then the resulting pellets were resuspended in 200 volumes of binding assay buffer (10 mM N-2-hydroxy-ethyl-piperazine-N'-2-ethane-sulfonic acid (HEPES), pH 7.7 at 25° C., 5 mM MgCl2, 1 mM ethyl glycol-bis-(β-amino-ethyl-ether-N,N'-tetraacetic acid (EGTA), 0.4% BSA (bovine serum albumin) and 0.25 mg/ml bacitracin, pH 6.5).
The remainder of the binding assay method was as described for the pancreas method, except that the reaction mixtures were incubated at 25° C. for 2 hours before centrifugation.

[2] = molecular target: T2, Gastrin receptor (gastric glands) (Cavia porcellus, UniProt H0VZC5); test: 125I-gastrin receptor binding in guinea pig gastric glands; parameters: species or system guinea pig (male Hartley); conditions: 25° C., 30 minutes
T2 construct: Gastric mucosa from male Hartley guinea pigs (300-500 g body weight); from tissue; host or cells: isolated gastric mucosal glands of male Hartley guinea pigs
T2 sequence (H0VZC5 1-426): T1 sequence (H0VZC5 1-426)
Text: as §1
Gastrin Receptor Binding in Guinea Pig Gastric Glands
Guinea pig gastric mucosal glands were prepared by the procedure of Berglingh and Obrink, Acta Physiol. Scand. 96: 150 (1976), with a slight modification according to Praissman et al. C. J. Receptor Res. 3: (1983). Gastric mucosa from male Hartley guinea pigs (300-500 g body weight) were washed thoroughly and minced with fine scissors in standard buffer consisting of the following: 130 mM NaCl, 12 mM NaHCO3, 3 mM NaH2 PO4, 3 mM Na2 HPO4, 3 mM K2 HPO4, 2 mM MgSO4, 1 mM CaCl2, 5 mM glucose and 4 mM L-glutamine, 25 mM HEPES at pH 7.4. […]
The washed guinea pig gastric glands were resuspended in 25 ml of standard buffer containing 0.25 mg/ml of bacitracin. […] The radioactivity of the filters was measured using a Beckman gamma 5500 for ^125 I-gastrin or liquid scintillation counting for ^3 H-pentagastrin.

[3] = molecular target: T3, CCK receptor (pancreas) (Rattus norvegicus, UniProt P30551); test: 125I-CCK-33 receptor binding (pancreas) method; parameters: species or system rat (male Sprague-Dawley); conditions: protease inhibitors added to binding assay buffer
T3 construct: The whole pancreas of a male Sprague-Dawley rat (200-350 g); from tissue; host or cells: whole pancreas of male Sprague-Dawley rat, membrane homogenate
T3 sequence (P30551 1-444): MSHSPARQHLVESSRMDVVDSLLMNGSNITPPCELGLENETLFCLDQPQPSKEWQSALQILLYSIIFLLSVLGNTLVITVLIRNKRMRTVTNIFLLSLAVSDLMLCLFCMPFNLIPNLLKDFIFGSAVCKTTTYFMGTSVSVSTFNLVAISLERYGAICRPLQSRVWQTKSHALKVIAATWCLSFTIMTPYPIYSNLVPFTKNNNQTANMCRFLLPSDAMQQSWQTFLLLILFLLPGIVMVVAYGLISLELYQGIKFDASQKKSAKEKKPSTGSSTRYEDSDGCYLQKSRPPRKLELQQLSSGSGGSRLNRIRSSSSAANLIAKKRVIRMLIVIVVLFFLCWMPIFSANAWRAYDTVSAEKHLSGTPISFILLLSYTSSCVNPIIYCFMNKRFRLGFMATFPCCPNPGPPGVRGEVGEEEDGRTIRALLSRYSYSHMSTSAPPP
Text: as §1, with “To identify significant gastrin antagonism, ^125 I-gastrin and ^3 H-pentagastrin binding assays are used.” left out
CCK receptor binding (pancreas) method
CCK-33 was radiolabeled with ^125 I-Bolton Hunter reagent (2000 Ci/mmole), as described by Sankara et al. (J. Biol. Chem., 254, 9349-9351, 1979).
The whole pancreas of a male Sprague-Dawley rat (200-350 g), which had been sacrificed by decapitation, was dissected free of fat tissue and homogenized in 20 volumes of ice-cold 50 mM Tris HCl (pH 7.7 at 25° C.) with a Brinkmann Polytron PT-10. The homogenates were centrifuged at 48,000 g for 10 minutes, then the resulting pellets were resuspended in Tris Buffer, centrifuged as above, and resuspended in 200 volumes of binding assay buffer (50 mM Tris HCl, pH 7.7 at 25° C., 5 mM dithiothreitol, 0.1 mM bacitracin, 1.2 mM phenylmethane sulfonyl fluoride and 0.5 mM o-phenanthroline).
The supernatant was aspirated and discarded, and the pellets were counted with a Beckman Gamma 5000.

[4] = tested on: CCK receptor; conditions: background, structure-function studies; cited from earlier work
[5] = tested on: gastrin; conditions: background, in vitro; cited from earlier work

Row | Compound | IC50 [1] | CCK antagonism (in words) [4] | further results
1 | CCCCCN(CCCCC)C(=O)C(CCC(=O)OCc1ccccc1)NC(=O)Nc1ccc(Cl)cc1 (racemic) [Compound 8, (RS)-4-[(4-chlorophenylaminocarbonyl)amino]-5-(dipentylamino)-5-oxo-1-(phenylmethyloxy)pentanoic acid] | 5.3 µM |  | IC50 [2]: 22 µM
2 | c1cnc2c(c1)ccc1cccnc12 [o-phenanthroline] |  |  | effect on the 125I-CCK receptor binding assay (in words) [3]: no effect
3 | CCCCCN(CCCCC)C(=O)C(CCC(=O)O)NC(=O)c1ccc(Cl)c(Cl)c1 (racemic) [Compound 2, reference compound] | 2.2 µM |  | 
4 | CSCC[C@H](NC(=O)OC(C)(C)C)C(=O)N[C@@H](CC(=O)O)C(=O)N[C@@H](Cc1ccccc1)C(N)=O [Boc-Met-Asp-Phe-NH2] (Boc-Met-Asp-Phe-NH2) |  | can function as CCK antagonists | 
5 | CSCC[C@H](N)C(=O)N[C@@H](CC(=O)O)C(=O)N[C@@H](Cc1ccccc1)C(N)=O [Met-Asp-Phe-NH2] (H-Met-Asp-Phe-NH2) |  | can function as CCK antagonists | 
6 | O=C(O)CC[C@@H](NC(=O)c1cc2ccccc2[nH]1)C(=O)N(C1CCCCC1)C1CCCCC1 [Compound 10, (R)-5-(dicyclohexylamino)-4[(1H-indol-2-ylcarbonyl)amino]-5-oxo-pentanoic acid] | 3.4 µM |  | IC50 [2]: 4.1 µM
7 | CCCC(=O)Nc1nc2c(ncn2[C@@H]2O[C@@H]3COP(=O)(O)O[C@H]3[C@H]2OC(=O)CCC)c(=O)[nH]1 [dibutyryl cyclic GMP] |  | most potent | 
8 | O=S(=O)(F)Cc1ccccc1 [phenylmethane sulfonyl fluoride] |  |  | effect on the 125I-CCK receptor binding assay (in words) [3]: no effect
9 | CCCN(CCC)C(=O)C(CCC(=O)O)NC(=O)c1ccccc1 (racemic) [Compound 1, reference compound] |  |  | gastrin antagonism (in words) [5]: very weak in vitro antagonists
10 | CSCC[C@H](NC(=O)[C@H](Cc1ccc(OS(=O)(=O)O)cc1)NC(=O)OCc1ccccc1)C(=O)NCC(=O)N[C@@H](Cc1c[nH]c2ccccc12)C(=O)N[C@@H](CCSC)C(=O)N[C@@H](CC(=O)O)C(N)=O [Cbz-Tyr(SO3 H)-Met-Gly-Trp-Met-Asp-NH2] (Cbz-[sY]MGWMD-NH2) |  | partial agonist | 
